Measurements published in article PMC3016878 (Chembiochem : a European journal of chemical biology, 2010).

Biological target: AAC(3)-IV; AAC(3) (Escherichia coli, UniProt Q306W4)
Assay: UV-vis acetyltransferase assay, Michaelis-Menten
Type: biochemical
Settings: co-substrate apramycin

## CC(=O)SCCNC(=O)CCNC(=O)[C@H](O)C(C)(C)COP(=O)(O)OP(=O)(O)OC[C@H]1O[C@@H](n2cnc3c(N)ncnc32)[C@H](O)[C@@H]1OP(=O)(O)O [AcCoA]
  KM: Michaelis-Menten plot for modification of apramycin by AcCoA and AzAcCoA
